Results taken from BigSolDB 2.1.

O=C1OC(=O)[C@H]2[C@@H]1[C@H]1C=C[C@@H]2C1
solubility (mole fraction)
Conditions | 278.15 K | 283.15 K | 288.15 K | 293.15 K | 298.15 K | 303.15 K | 308.15 K | 313.15 K | 318.15 K | 323.15 K
in 1,4-dioxane | – | – | 0.177 | 0.199 | 0.221 | 0.249 | 0.273 | 0.304 | 0.334 | 0.37
in DMF | 0.209 | 0.23 | 0.246 | 0.267 | 0.288 | 0.309 | 0.337 | 0.361 | 0.389 | 0.419
in NMP | 0.257 | 0.271 | 0.289 | 0.305 | 0.325 | 0.345 | 0.371 | 0.392 | 0.421 | 0.448
in acetone | 0.13 | 0.144 | 0.162 | 0.179 | 0.201 | 0.223 | 0.251 | 0.276 | 0.308 | –
in ethanol | 0.00405 | 0.00536 | 0.00707 | 0.00927 | 0.0117 | 0.0155 | 0.02 | 0.0255 | 0.0321 | 0.0404
in ethyl acetate | 0.0719 | 0.0849 | 0.101 | 0.115 | 0.134 | 0.154 | 0.176 | 0.201 | 0.226 | 0.254
in isopentyl acetate | 0.0426 | 0.0504 | 0.0608 | 0.07 | 0.0818 | 0.0952 | 0.107 | 0.125 | 0.145 | 0.165
in isopropyl acetate | 0.0541 | 0.0637 | 0.0745 | 0.0862 | 0.102 | 0.117 | 0.133 | 0.152 | 0.172 | 0.196
in methyl acetate | 0.0936 | 0.11 | 0.127 | 0.145 | 0.166 | 0.189 | 0.214 | 0.24 | 0.269 | 0.298
in n-butyl acetate | 0.0526 | 0.0614 | 0.0725 | 0.0835 | 0.0969 | 0.111 | 0.128 | 0.145 | 0.165 | 0.189
in n-hexyl acetate | 0.0377 | 0.0447 | 0.0525 | 0.0614 | 0.0717 | 0.0828 | 0.0955 | 0.11 | 0.125 | 0.144
in n-pentyl acetate | 0.0448 | 0.0526 | 0.0615 | 0.0717 | 0.0833 | 0.0964 | 0.111 | 0.126 | 0.144 | 0.165
in n-propyl acetate | 0.0616 | 0.0722 | 0.0852 | 0.0981 | 0.112 | 0.13 | 0.148 | 0.17 | 0.191 | 0.215
in octyl acetate | 0.0303 | 0.036 | 0.0424 | 0.0496 | 0.0576 | 0.0666 | 0.0774 | 0.0875 | 0.1 | 0.115
